Earlier results in patent publication US20030040459A1, “Cleaning compositions” (Unilever Home & Pesonal Care USA, priority 2001, published 2003).

Settings: for Water Solubility (g/100 g): at 20° C.

## O=BO[O-].[Na+] [Sodium perborate anhydrous]
  Water Solubility (g/100 g): 3.7 g/100 g

## O=P(O)(O)OP(=O)(O)OP(=O)(O)O [Sodium tripolyphosphate anhydrous]
  Water Solubility (g/100 g): 15 g/100 g

## NC(N)=O [Urea]
Grams of solid to form a saturated solution in 100 grams of deionised water at 20° C.
  Water Solubility (grams/100 grams water): >100 grams/100 grams water
